Legend:
[1] = Postprandial plasma kinetics of monoterpenes after a single dose of Mastiha Oil (GC-MS-MS); assay type: in vivo, human; conditions: for Time of first detection in plasma: human plasma after 1 mL MO; for Area Under Curve: 1 mL MO oral single dose, linear trapezoidal method; for concentration at 4 h: 4 h after 1 mL MO; for concentration at 24 h: 24 h after 1 mL MO; for Cmax / Tmax: healthy males, 1 mL MO oral single dose after overnight fasting
Text: An open label intervention trial was designed to assess the postprandial plasma levels of the main monoterpenes present in MO and their effect in antioxidant capacity. A kinetic approach was applied. Fifty apparently healthy male adults were screened. Ten volunteers were found eligible to the study according to specific criteria (Table 1). Eligible subjects were informed about the aims, methodology, expected effect and any risk from the Information Leaflet of the study, before signing an Informed Consent. The investigator explained that participation was voluntary and participants received a copy of the signed Informed Consent.
A Thermo Ultra GC-Thermo XLS Quantum GC-MS-MS Triple Quad with a DB-5 ms 30 × 0.25 × 0.25 capillary column (Merck KGaA, Darmstadt, Germany) was used. The sample was injected using a Programmed Temperature Vaporizing (PTV) injector that allows concentration of samples, using an automated sampler. Injection volume was 1 µL.
To be able to determine low ppb levels, a GC-MS-MS technique was performed. Signal to noise improves radically compared to traditional GC-MS methods. Full scan MS-MS was first employed in analytical standards which run individually to determine the parent and daughter ions and retention times were validated with the use of analytical standards which run individually.
Initial temperature was held at 50 °C for 2 min. Then temperature was ramped to 60 °C with a rate of 5 °C/min. The temperature reached 270 °C at a rate of 7 °C/min. Injector temperature was set at 250 °C. The splitless injected volume was 1 µL. At 1.2 min the splitless valve switched.
The MS-MS conditions were as follows: Parent Ion was m/z 93 and daughter ions were 91 and 77 for all compounds. Collision energy was set at 8 V and collision gas pressure was 1.5 mTorr. MS-MS scan time was set at 0.15 s. The peak width was maintained at 0.7 amu.
For sample preparation, a 1:1 mixture of ethyl-acetate:hexane was used and equal volumes of blood plasma and extractant were put in centrifuge tubes and vortexed for 20 min. The samples were then centrifuged and filtrated before injection.
To be able to determine low ppb levels, a GC-MS-MS technique was performed, which, compared to traditional GC-MS methods, improves signal to noise values and thus sensitivity in the identification of compounds. Full scan MS-MS was first employed in analytical standards which run individually to determine the parent and daughter ions of the three terpenes and their retention times. Identification of chromatographic peaks was accomplished by using the parent ion and most abundant daughter ion of each compound and comparing the retention times with those of reference standards. For quantification, blank plasma samples (collected prior to MO administration) were spiked with standard monoterpene solutions ([…]), and were treated identically to the samples, since the standard addition method used eliminates the matrix effect. The standard monoterpene solutions were prepared in ethyl acetate in the range 2–2000 μg/L by diluting stock solutions (1 mg/mL). In all preliminary tests the average recovery for the monoterpenes studied was >80% and the detection limit was 0.02 µg/L.
The maximum concentrations of monoterpenes (Cmax) and the time intervals (Tmax) were obtained from each participant’s plasma concentration–time curve. The area under the plasma concentration–time curve (AUC) was analysed using the Linear Trapezoidal method.

[2] = design: method as in PMID 29197300; conditions: rats, oral administration; cited from earlier work
[3] = male, oral, human plasma, mean ± SEM

| Time of first detection in plasma [1] | Area Under Curve ([1]; human plasma, mean ± SEM) | concentration at 4 h [1, 3] | concentration at 24 h [1, 3] | Cmax ([1]; male, human plasma, mean ± SEM) | Tmax ([1]; male, human plasma, mean ± SEM) | concentration at 0.5 h ([1]; male, oral, human plasma, 0.5 h after 1 mL MO, mean ± SEM) | concentration at 2 h ([1]; male, oral, human plasma, 2 h after 1 mL MO, mean ± SEM) | Structure (SMILES) | Time at which bioavailable in plasma [2] | Time of peak concentration in plasma [2] |
| --- | --- | --- | --- | --- | --- | --- | --- | --- | --- | --- |
| 0.5 h | 7865.2 ± 5547.3 ng·h/mL | 839 ± 189 ng/mL | 80.6 ± 7.3 ng/mL | 915 ± 551 ng/mL | 3.8 ± 1.2 h | – | – | CC1=CCC2CC1C2(C)C (stereo not drawn) [α-Pinene, α-pinene] | 0.17 h | 2.5 h |
| 0.5 h | 15318.0 ± 7313.3 ng·h/mL | – | 648 ± 60.3 ng/mL | 967 ± 89.7 ng/mL | 2.2 ± 1.7 h | 775 ± 64 ng/mL | 906 ± 44.6 ng/mL | C=CC(=C)CCC=C(C)C [Myrcene, myrcene] | – | – |
| 0.5 h | 164.0 ± 110.8 ng·h/mL | 16.7 ± 3.5 ng/mL | 2.1 ± 0.3 ng/mL | 18 ± 10.7 ng/mL | 3.6 ± 0.9 h | – | – | C=C1CCC2CC1C2(C)C (stereo not drawn) [β-Pinene, β-pinene] | – | – |

— article PMC7466295, “An Absorption and Plasma Kinetics Study of Monoterpenes Present in Mastiha Oil in Humans” (Foods, 2020)
